Measurements as given in patent US8822754B2, “Ecdysone receptor-based inducible gene expression system” (Intrexon Corporation, priority 2000, dated 2014).

Legend:
GAL4USP + VP16CfEcR [1] = assay: Transactivation of reporter genes through switch 1.5 in CV1 cells; assay type: cell-based, Choristoneura fumiferana; conditions: switch 1.5 GAL4USP + VP16CfEcR, pGAL4RELuc
Method: (§1) This construct was prepared in the same way as switch 1.3 except MmRXRDEF was replaced with CfUSPDEF (SEQ ID NO: 58).
(§2) The same procedures described for NIH3T3 cells were followed for CV1 cells
(§3) Cells were harvested 24-48 hr after adding ligands. […] Twenty μl of lysate was assayed.

GAL4RXR + VP16DmEcR [2] = molecular target: T1, GAL4RXR + VP16DmEcR (Drosophila melanogaster, UniProt P34021); assay: Transactivation of reporter genes through switch 1.4 in 293 cells; assay type: cell-based; design: expressed in transfected cells; host or cells: 293 cells (transient co-transfection); conditions: switch 1.4 GAL4RXR + VP16DmEcR, pGAL4RELuc
T1 sequence (P34021 254-878): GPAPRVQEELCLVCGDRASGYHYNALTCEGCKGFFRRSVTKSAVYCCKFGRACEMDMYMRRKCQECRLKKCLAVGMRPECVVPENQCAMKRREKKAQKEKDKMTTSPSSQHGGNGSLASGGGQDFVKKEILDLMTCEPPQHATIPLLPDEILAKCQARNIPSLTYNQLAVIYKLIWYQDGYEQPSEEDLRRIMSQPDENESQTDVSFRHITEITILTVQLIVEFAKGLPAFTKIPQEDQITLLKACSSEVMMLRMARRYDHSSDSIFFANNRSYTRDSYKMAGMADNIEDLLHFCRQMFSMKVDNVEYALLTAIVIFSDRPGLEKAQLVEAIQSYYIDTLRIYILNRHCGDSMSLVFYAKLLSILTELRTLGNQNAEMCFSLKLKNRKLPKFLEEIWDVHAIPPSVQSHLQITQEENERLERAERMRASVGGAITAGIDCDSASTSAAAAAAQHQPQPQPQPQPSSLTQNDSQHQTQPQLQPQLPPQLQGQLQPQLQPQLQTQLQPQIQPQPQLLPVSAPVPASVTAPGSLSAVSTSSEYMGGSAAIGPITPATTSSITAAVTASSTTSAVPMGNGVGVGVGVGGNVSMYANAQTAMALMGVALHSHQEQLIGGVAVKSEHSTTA
T1 sequence (P28700 206-467 partner limits assumed): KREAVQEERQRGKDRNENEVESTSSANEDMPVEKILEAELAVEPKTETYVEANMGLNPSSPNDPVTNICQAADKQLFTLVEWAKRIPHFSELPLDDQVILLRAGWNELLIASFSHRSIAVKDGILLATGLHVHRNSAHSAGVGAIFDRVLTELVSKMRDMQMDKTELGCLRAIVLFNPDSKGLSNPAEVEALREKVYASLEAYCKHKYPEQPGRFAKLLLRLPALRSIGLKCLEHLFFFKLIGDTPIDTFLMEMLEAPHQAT
Method: (§4) This construct was prepared in the same way as switch 1.3 except CfEcRCDEF was replaced with DmEcRCDEF (SEQ ID NO: 6).
(§5) The same procedures described for CHO were followed for 293 cells except that the cells were plated in biocoated plates to avoid clumping.
as §3

GAL4RXR + VP16CfEcR [3] = assay: Transactivation of reporter genes through switch 1.3 in 293 cells; assay type: cell-based, Choristoneura fumiferana; conditions: switch 1.3 GAL4RXR + VP16CfEcR, pGAL4RELuc
Method: as §5, §3

GAL4EcR + VP16USP [4] = assay: Transactivation of reporter genes through switch 1.2 in 293 cells; assay type: cell-based, Choristoneura fumiferana; conditions: switch 1.2 GAL4EcR + VP16USP, pGAL4RELuc
Method: (§6) This construct was prepared in the same way as in switch 1.1 above except MmRXRDEF was replaced with the D, E and F domains from spruce budworm USP (“CfUSPDEF”; SEQ ID NO: 58). The constructs used in this example are similar to those disclosed in U.S. Pat. No. 5,880,333 except that Choristoneura fumiferana USP rather than Drosophila melanogaster USP was utilized.
as §5, §3

CfVgRXR + MmRXR [5] = assay: Transactivation of reporter genes through switch 1.9 in CV1 cells; assay type: cell-based, Choristoneura fumiferana; conditions: switch 1.9 CfVgRXR + MmRXR, pIND(SP1)LacZ
Method: (§7) This example was prepared in the same way as switch 1.8 except DinEcR was replaced with a truncated CfEcR comprising a partial A/B domain and the complete CDEF domains [SEQ ID NO: 62 (polynucleotide) and SEQ ID NO: 63 (polypeptide)].
as §2, §3

GAL4RXR + VP16DmEcR [6] = molecular target: T1, GAL4RXR + VP16DmEcR; assay: Transactivation of reporter genes through switch 1.4 in CV1 cells; assay type: cell-based; design: expressed in transfected cells; host or cells: CV1 cells (transient co-transfection); conditions: switch 1.4 GAL4RXR + VP16DmEcR, pGAL4RELuc
Method: as §4, §2, §3

GAL4EcR + VP16USP [7] = assay: Transactivation of reporter genes through switch 1.2 in 3T3 cells; assay type: cell-based, Choristoneura fumiferana; conditions: switch 1.2 GAL4EcR + VP16USP, pGAL4RELuc
Method: as §6
(§8) The cells were plated when they reached 50% confluency.
as §3

CfVgRXR = assay: Transactivation of reporter genes through switch 1.10 in CHO cells; assay type: cell-based, Choristoneura fumiferana; conditions: switch 1.10 CfVgRXR, pIND(SP1)LacZ
Method: This example was prepared in the same way as switch 1.9 except MmRXR (SEQ ID NO: 53) was deleted.
(§9) The cells were harvested and reporter activity was assayed.
as §3

GAL4CfEcRVP16 = assay: Transactivation of reporter genes through switch 1.6 in CV1 cells; assay type: cell-based, Choristoneura fumiferana; conditions: switch 1.6 GAL4CfEcRVP16, pGAL4RELuc
Method: This construct was prepared so that both the GAL4 DNABD and the VP16AD were placed on the same molecule. GAL4DNABD (SEQ ID NO: 41) and VP16AD (SEQ ID NO: 45) were fused to CfEcRDEF (SEQ ID NO: 3) at N- and C-termini respectively.
as §2, §3

CfVgRXR + MmRXR [8] = assay: Transactivation of reporter genes through switch 1.9 in 3T3 cells; assay type: cell-based, Choristoneura fumiferana; conditions: switch 1.9 CfVgRXR + MmRXR, pIND(SP1)LacZ
Method: as §7, §8, §3

GAL4RXR + VP16CfEcR [9] = assay: Transactivation of reporter genes through switch 1.3 in CHO cells; assay type: cell-based, Choristoneura fumiferana; conditions: switch 1.3 GAL4RXR + VP16CfEcR, pGAL4RELuc
Method: as §9, §3

GAL4RXR + VP16DmEcR [10] = molecular target: T1, GAL4RXR + VP16DmEcR; assay: Transactivation of reporter genes through switch 1.4 in CHO cells; assay type: cell-based; design: expressed in transfected cells; host or cells: CHO cells (transient co-transfection); conditions: switch 1.4 GAL4RXR + VP16DmEcR, pGAL4RELuc
Method: as §4, §9, §3

GAL4USP + VP16CfEcR [11] = assay: Transactivation of reporter genes through switch 1.5 in CHO cells; assay type: cell-based, Choristoneura fumiferana; conditions: switch 1.5 GAL4USP + VP16CfEcR, pGAL4RELuc
Method: as §1, §9, §3

GAL4EcR + VP16RXR = assay: Transactivation of reporter genes through switch 1.1 in 293 cells; assay type: cell-based, Choristoneura fumiferana; conditions: switch 1.1 GAL4EcR + VP16RXR, pGAL4RELuc
Method: as §5, §3

GAL4EcR + VP16USP [12] = assay: Transactivation of reporter genes through switch 1.2 in CHO cells; assay type: cell-based, Choristoneura fumiferana; conditions: switch 1.2 GAL4EcR + VP16USP, pGAL4RELuc
Method: as §6, §9, §3

CCc1c(OC)cccc1C(=O)NN(C(=O)c1cc(C)cc(C)c1)C(C)(C)C [N-(2-ethyl-3-methoxybenzoyl)-N′-(3,5-dimethylbenzoyl)-N′-tert-butylhydrazine]
Mean Fold Activation Through N-(2-ethyl-3-methoxybenzoyl)-N′-(3,5-dimethylbenzoyl)-N′-t-butylhydrazine (GAL4USP + VP16CfEcR [1]): 3 fold | Mean Fold Activation Through N-(2-ethyl-3-methoxybenzoyl)-N′-(3,5-dimethylbenzoyl)-N′-t-butylhydrazine (GAL4RXR + VP16DmEcR [2]): 3 fold | Mean Fold Activation Through N-(2-ethyl-3-methoxybenzoyl)-N′-(3,5-dimethylbenzoyl)-N′-t-butylhydrazine (GAL4RXR + VP16CfEcR [3]): 17 fold | Mean Fold Activation Through N-(2-ethyl-3-methoxybenzoyl)-N′-(3,5-dimethylbenzoyl)-N′-t-butylhydrazine (GAL4EcR + VP16USP [4]): 2 fold | Mean Fold Activation Through N-(2-ethyl-3-methoxybenzoyl)-N′-(3,5-dimethylbenzoyl)-N′-t-butylhydrazine (CfVgRXR + MmRXR [5]): 7 fold | Mean Fold Activation Through N-(2-ethyl-3-methoxybenzoyl)-N′-(3,5-dimethylbenzoyl)-N′-t-butylhydrazine (GAL4RXR + VP16DmEcR [6]): 80 fold | Mean Fold Activation Through N-(2-ethyl-3-methoxybenzoyl)-N′-(3,5-dimethylbenzoyl)-N′-t-butylhydrazine (GAL4EcR + VP16USP [7]): 2 fold | Mean Fold Activation with 50 μM N-(2-ethyl-3-methoxybenzoyl)-N′-(3,5-dimethylbenzoyl)-N′-t-butylhydrazine (CfVgRXR): 29 fold | Mean Fold Activation Through N-(2-ethyl-3-methoxybenzoyl)-N′-(3,5-dimethylbenzoyl)-N′-t-butylhydrazine (GAL4CfEcRVP16): 6 fold | Mean Fold Activation Through N-(2-ethyl-3-methoxybenzoyl)-N′-(3,5-dimethylbenzoyl)-N′-t-butylhydrazine (CfVgRXR + MmRXR [8]): 19 fold | Mean Fold Activation with 50 μM N-(2-ethyl-3-methoxybenzoyl)-N′-(3,5-dimethylbenzoyl)-N′-t-butylhydrazine (GAL4RXR + VP16CfEcR [9]): 85 fold | Mean Fold Activation with 50 μM N-(2-ethyl-3-methoxybenzoyl)-N′-(3,5-dimethylbenzoyl)-N′-t-butylhydrazine (GAL4RXR + VP16DmEcR [10]): 312 fold | Mean Fold Activation with 50 μM N-(2-ethyl-3-methoxybenzoyl)-N′-(3,5-dimethylbenzoyl)-N′-t-butylhydrazine (GAL4USP + VP16CfEcR [11]): 2 fold | Mean Fold Activation Through N-(2-ethyl-3-methoxybenzoyl)-N′-(3,5-dimethylbenzoyl)-N′-t-butylhydrazine (GAL4EcR + VP16RXR): 125 fold | Mean Fold Activation with 50 μM N-(2-ethyl-3-methoxybenzoyl)-N′-(3,5-dimethylbenzoyl)-N′-t-butylhydrazine (GAL4EcR + VP16USP [12]): 2 fold
